pEC50, pIC50: −log10 of the molar value.

Assay [1] deals with T1, Full-length wild type HIV-1 integrase (SF1) (Human immunodeficiency virus type 1 group M subtype B, UniProt P04585).
T1 construct: made in house; host or cells: E. coli BL21 (DE3)
The assay can be described thus: Integrase strand-transfer scintillation proximity assay. It is filed as biochemical. The conditions noted are these: strand-transfer SPA, 246 nM integrase, 50 nM host DNA, 37° C., 50 min; read-out: IC50. Background: Scintillation proximity formats need no separation of bound from free tracer.

Assay [2] concerns HIV-1 RF virus in CEM-SS cells. The assay can be described thus: HIV-1 cell protection assay (XTT dye reduction). It is filed as cell-based. The conditions noted are these: Human immunodeficiency virus 1, 144 h; RF strain of HIV-1, CEM-SS cells, XTT read-out after six days; read-out: EC50. The gist of the method:
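Infected CEM-SS cultures incubated six days, then XTT with phenazine methosulfate added for 4 h; viability read as formazan absorbance at 450 nm. Formazan expressed as percent of uninfected, compound-free cells; CC50 from uninfected treated cells, therapeutic index as CC50/EC50.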
On the technique in general: Tetrazolium assays rely on reduction of a dye to a coloured formazan, in cell work by metabolically active cells.

Turning to `N#Cc1cccc(Cn2ccc3c4c(ncc32)C(=O)N(O)CC4)c1` [Example 85, 3-[(7-hydroxy-6-oxo-6,7,8,9-tetrahydro-3H-pyrrolo[2,3c]1,7-naphthyridin-3-yl)methyl]benzonitrile], in assay [1], the negative-log IC50 (pIC50) is 6.25. In addition, in assay [2], the pEC50 was 6.34.
The corresponding values for `N#Cc1ccc(Cn2ccc3c4c(ncc32)C(=O)N(O)CC4)cc1` [Example 86, 4-[(7-hydroxy-6-oxo-6,7,8,9-tetrahydro-3H-pyrrolo[2,3-c]-1,7-naphthyridin-3-yl)methyl]benzonitrile] are 6.97 and 7.57.
The corresponding values for `O=C1c2ncc3c(ccn3Cc3ccccn3)c2CCN1O` [Example 87, 7-hydroxy-3-(pyridin-2-ylmethyl)-3,7,8,9-tetrahydro-6H-pyrrolo[2,3-c]-1,7-naphthyridin-6-one] are 7.05 and 7.46.
The corresponding values for `N#Cc1cc(Cn2ccc3c4c(ncc32)C(=O)N(O)CC4)ccc1F` [Example 88, 2-fluoro-5-[(7-hydroxy-6-oxo-6,7,8,9-tetrahydro-3H-pyrrolo[2,3-c]-1,7-naphthyridin-3-yl)methyl]benzonitrile] are 8.05 and 9.35.
Take `O=c1c2ncc3c(c(COCC4CCC4)cn3Cc3ccc(F)cc3)c2ccn1O` [Example 90, 1-[(cyclobutylmethoxy)methyl]-3-(4-fluorobenzyl)-7-hydroxy-3,7-dihydro-6H-pyrrolo[23-c]-17-naphthyridin-6-one]: in assay [1], the pIC50 is 7.23. In addition, in assay [2], the pEC50 is 7.85.
The corresponding values for `O=c1c2ncc3c(c(COCCOCc4ccccc4)cn3Cc3ccc(F)cc3)c2ccn1O` [Example 92, 1-{[2-(benzyloxy)ethoxy]methyl}-3-(4-fluorobenzyl)-7-hydroxy-3,7-dihydro-6H-pyrrolo[2,3-c]-1,7-naphthyridin-6-one] are 8.52 and 8.00.
The corresponding values for `COCCCc1cn(Cc2ccc(F)cc2)c2cnc3c(c12)CCN(O)C3=O` [Example 94, 3-(4-fluorobenzyl)-7-hydroxy-1-(3-methoxypropyl)-3,7,8,9-tetrahydro-6H-pyrrolo[2,3-c]-1,7-naphthyridin-6-one] are 7.92 and 9.60.
With `Cc1cc2c(ncc3c2c(CN2CCN(C)CC2)cn3Cc2ccc(F)cc2)c(=O)n1O` [Example 95, 3-(4-fluorobenzyl)-7-hydroxy-8-methyl-1-[(4-methylpiperazin-1-yl)methyl]3,7-dihydro-6H-pyrrolo[2,3-c]-1,7-naphthyridin-6-one], the pIC50 in assay [1] was 7.85. Besides, the pEC50 in assay [2] was 9.35.
Turning to `Cc1cc2c(ncc3c2c(CN2CCN(C)C(=O)C2)cn3Cc2ccc(F)cc2)c(=O)n1O` [Example 96, 3-(4-fluorobenzyl)-7-hydroxy-8-methyl-1-[(4-methyl-3-oxopiperazin-1-yl)methyl]-3,7-dihydro-6H-pyrrolo[2,3-c]-1,7-naphthyridin-6-one], in assay [1], the negative logarithm of the IC50 (pIC50) was 8.00. For the same compound, the pEC50 in assay [2] is 8.30.
The corresponding values for `CCCN(CCO)Cc1cn(Cc2ccc(F)cc2)c2cnc3c(=O)n(O)c(C)cc3c12` [Example 97, 3-(4-fluorobenzyl)-7-hydroxy-1-{[(2-hydroxyethyl)(propyl)amino]methyl}-8-methyl-3,7-dihydro-6H-pyrrolo[2,3-c]-1,7-naphthyridin-6-one] are 7.77 and 9.16.
The corresponding values for `O=C1c2ncc3c(c(CN4CCCCCC4)cn3Cc3ccc(F)cc3)c2CCN1O` [Example 98, 1-(azepan-1-ylmethyl)-3-(4-fluorobenzyl)-7-hydroxy-3,7,8,9-tetrahydro-6H-pyrrolo[2,3-c]-1,7-naphthyridin-6-one] are 7.42 and 7.89.
The corresponding values for `CC(=O)C1CCN(Cc2cn(Cc3ccc(F)cc3)c3cnc4c(c23)CCN(O)C4=O)CC1` [Example 99, 1-[(4-acetylpiperidin-1-yl)methyl]-3-(4-fluorobenzyl)-7-hydroxy-3,7,8,9-tetrahydro-6H-pyrrolo[2,3-c]-1,7-naphthyridin-6-one] are 7.66 and 8.30.
As for `COC1CCN(Cc2cn(Cc3ccc(F)cc3)c3cnc4c(c23)CCN(O)C4=O)CC1` [Example 100, 3-(4-fluorobenzyl)-7-hydroxy-1-[(4-methoxypiperidin-1-yl)methyl]-3,7,8,9-tetrahydro-6H-pyrrolo[2,3-c]-1,7-naphthyridin-6-one], the negative logarithm of the IC50 (pIC50) in assay [1] was 7.68. Besides, in assay [2], the pEC50 was 9.15.
With `Cc1cc2c(ncc3c2c(CN2CCCCC2)cn3Cc2ccc(F)cc2)c(=O)n1O` [Example 101, 3-(4-fluorobenzyl)-7-hydroxy-8-methyl-1-(piperidin-1-ylmethyl)-3,7-dihydro-6H-pyrrolo[2,3-c]-1,7-naphthyridin-6-one], the pIC50 in assay [1] was 7.85. In addition, the pEC50 in assay [2] is 9.34.
`COCCN(C)Cc1cn(Cc2ccc(F)cc2)c2cnc3c(=O)n(O)c(C)cc3c12` [Example 102, 3-(4-fluorobenzyl)-7-hydroxy-1-{[(2-methoxyethyl)(methyl)amino]methyl}-8-methyl-3,7-dihydro-6H-pyrrolo[2,3-c]-1,7-naphthyridin-6-one]: in assay [1], the pIC50 was 7.89. Further, the pEC50 in assay [2] is 9.60.
Regarding `O=C1c2ncc3c(c(CCN4CCCC4)cn3Cc3ccc(F)cc3)c2CCN1O` [Example 103, 3-(4-fluorobenzyl)-7-hydroxy-1-(2-(pyrrolidin-1-yl)ethyl)-8,9-dihydro-3H-pyrrolo[2,3-c][1,7]naphthyridin-6(7H)-one], the pIC50 in assay [1] was 7.62. For the same compound, in assay [2], the negative-log EC50 (pEC50) was 7.74.
Turning to `CN(C)CCc1cn(Cc2ccc(F)cc2)c2cnc3c(c12)CCN(O)C3=O` [Example 104, 3-(4-fluorobenzyl)-1-(2-(dimethylamino)ethyl)-7-hydroxy-8,9-dihydro-3H-pyrrolo[2,3-c][1,7]naphthyridin-6(7H)-one], in assay [1], the pIC50 is 7.62. Also, the pEC50 in assay [2] was 7.49.
`CN(CCCc1cn(Cc2ccc(F)cc2)c2cnc3c(c12)CCN(O)C3=O)CC1CCOCC1` [Example 105, 3-(4-fluorobenzyl)-7-hydroxy-1-{3-[methyl(tetrahydro-2H-pyran-4-ylmethyl)amino]propyl}-3,7,8,9-tetrahydro-6H-pyrrolo[2,3-c]-1,7-naphthyridin-6-one]: the negative logarithm of the IC50 (pIC50) in assay [1] was 7.62. The pEC50 in assay [2] was 7.80.
For the compound `COCCOCCCc1cn(Cc2ccc(F)cc2)c2cnc3c(c12)CCN(O)C3=O` [Example 106, 3-(4-fluorobenzyl)-7-hydroxy-1-[3-(2-methoxyethoxy)propyl]-3,7,8,9-tetrahydro-6H-pyrrolo[2,3-c]-1,7-naphthyridin-6-one], the negative-log IC50 (pIC50) in assay [1] is 7.85. The pEC50 in assay [2] is 9.02.
The corresponding values for `CN(CCc1cn(Cc2ccc(F)cc2)c2cnc3c(c12)CCN(O)C3=O)C1CCOCC1` [Example 108, 3-(4-fluorobenzyl)-7-hydroxy-1-(2-(methyl(tetrahydro-2H-pyran-4-yl)amino)ethyl)-8,9-dihydro-3H-pyrrolo[2,3-c][1,7]naphthyridin-6(7H)-one] are 7.68 and 7.80.
The corresponding values for `O=C1c2ncc3c(c(CCN4CCC(F)(F)C4)cn3Cc3ccc(F)cc3)c2CCN1O` [Example 109, 3-(4-fluorobenzyl)-1-(2-(3,3-difluoropyrrolidin-1-yl)ethyl)-7-hydroxy-8,9-dihydro-3H-pyrrolo[2,3-c][1,7]naphthyridin-6(7H)-one] are 7.85 and 9.00.
The corresponding values for `O=C1c2ncc3c(c(CCO)cn3Cc3ccc(F)cc3)c2CCN1O` [Example 110, 3-(4-fluorobenzyl)-7-hydro-1-(2-hydroxyethyl)-8,9-dihydro-3H-pyrrolo[2,3-c][1,7]naphthyridin-6(7H)-one] are 7.96 and 8.30.
Turning to `O=C1c2ncc3c(c(CCN4CCOCC4)cn3Cc3ccc(F)cc3)c2CCN1O` [Example 111, 3-(4-fluorobenzyl)-7-hydroxy-1-(2-morpholinoethyl)-8,9-dihydro-3H-pyrrolo[2,3-c][1,7]naphthyridin-6(7H)-one], in assay [1], the pIC50 is 7.92. Moreover, the pEC50 in assay [2] is 8.40.
As for `O=C1c2ncc3c(c(CCNC4CCOCC4)cn3Cc3ccc(F)cc3)c2CCN1O` [Example 112, 3-(4-flourobenzyl)-7-hydroxy-1-(2-(tetrahydro-2H-pyran-4-ylamino)ethyl)-8,9-dihydro-3H-pyrrolo[2,3-c][1,7]naphthyridin-6(7H)-one], the pIC50 in assay [1] was 7.55. In assay [2], the pEC50 was 7.20.
The corresponding values for `CN(CCc1cn(Cc2ccc(F)cc2)c2cnc3c(c12)CCN(O)C3=O)CC(F)(F)F` [Example 113, 3-(4-fluorobenzyl)-7-hydroxy-1-{2-[methyl(2,2,2-trifluoroethyl)amino]ethyl}-3,7,8,9-tetrahydro-6H-pyrrolo[2,3-c]-1,7-naphthyridin-6-one] are 7.82 and 8.70.
For `CN(CCc1cn(Cc2ccc(F)cc2)c2cnc3c(c12)CCN(O)C3=O)CC1CC1` [Example 114], the pIC50 in assay [1] was 7.72. Besides, the pEC50 in assay [2] was 8.00.
Turning to `O=C1c2ncc3c(c(CCNCC(F)(F)F)cn3Cc3ccc(F)cc3)c2CCN1O` [Example 115, 3-(4-fluorobenzyl)-7-hydroxy-1-{2-[(2,2,2-trifluoroethyl)amino]ethyl}-3,7,8,9-tetrahydro-6H-pyrrolo[2,3-c]-1,7-naphthyridin-6-one], the negative-log IC50 (pIC50) in assay [1] was 7.85. Further, in assay [2], the negative logarithm of the EC50 (pEC50) is 8.70.
The corresponding values for `O=C1c2ncc3c(c(CCNCCC(F)(F)F)cn3Cc3ccc(F)cc3)c2CCN1O` [Example 117, 3-(4-fluorobenzyl)-7-hydroxy-1-{2-[(3,3,3-trifluoropropyl)amino]ethyl}-3,7,8,9-tetrahydro-6H-pyrrolo[2,3-c]-1,7-naphthyridin-6-one] are 7.77 and 8.22.

The term pIC50 denotes −log10 of the IC50, conventionally taken in molar units. Usually pEC50 stands for the negative decadic logarithm of the EC50, by convention in mol/L.

The values are drawn from patent US20070099915A1, “INHIBITORS OF THE HIV INTEGRASE ENZYME” (PFIZER INC., priority 2005, published 2007).
